Where two headings read alike, the source gives them in different places.
Target: BTK (Homo sapiens, UniProt Q06187)
Assay: biochemical
[1] = read-out: BTK inhibition (%), 0.75 uM BTK, […] probe 3l, 15 min preincubation

Sequence of BTK (Q06187 402-655 limits assumed): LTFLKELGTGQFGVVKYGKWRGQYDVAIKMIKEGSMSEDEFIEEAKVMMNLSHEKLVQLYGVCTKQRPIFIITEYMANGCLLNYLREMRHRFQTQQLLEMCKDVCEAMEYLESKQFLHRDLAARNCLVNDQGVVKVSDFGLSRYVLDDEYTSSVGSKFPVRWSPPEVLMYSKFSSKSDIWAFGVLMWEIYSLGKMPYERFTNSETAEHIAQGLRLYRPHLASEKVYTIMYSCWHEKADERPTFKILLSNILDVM

| SMILES | inhibition at 10 µM [1] [%] | inhibition at 10 µM (read-out: BTK inhibition (%)) [%] |
| --- | --- | --- |
| C[C@@]1(F)[C@H](O)[C@@H](CO)O[C@H]1n1ccc(=O)[nH]c1=O [PCM-0216055] | -20 |  |
| CC(C)c1ccc2c(c1O)CC[C@H]1C3=C(CC[C@]21C)C(=O)OC3 [PCM-0216350] | 0.8 |  |
| CCN(CC)CCCC(C)Nc1c2ccc(Cl)cc2nc2ccc(OC)cc12 (stereo not shown) [PCM-0065371] | -8.5 |  |
| CC(C)=CCC[C@@](C)(O)[C@H]1CC[C@]2(C)[C@@H]1[C@H](O)C[C@@H]1[C@@]3(C)CC[C@H](O)C(C)(C)[C@@H]3[C@@H](O[C@@H]3O[C@H](CO)[C@@H](O)[C@H](O)[C@H]3O)C[C@]12C [PCM-0216547] | 12.4 |  |
| CCN(CC)CC(=O)Oc1ccc(NC(C)=O)cc1 [PCM-0215103] | -0.8 |  |
| CCOC(=O)N[C@@H]1CC[C@@H]2[C@@H](C1)C[C@H]1C(=O)O[C@H](C)[C@H]1[C@H]2/C=C/c1ccc(-c2cccc(F)c2)cn1 [PCM-0215561] | 26.3 |  |
| COc1ccc([C@@H]2CC(=O)c3c(O)cc(O[C@@H]4O[C@H](CO[C@@H]5O[C@@H](C)[C@H](O)[C@@H](O)[C@H]5O)[C@@H](O)[C@H](O)[C@H]4O)cc3O2)cc1 [PCM-0216487] | -3.1 |  |
| CCCCCCCCCCCCCCCCCC[N+](C)(C)C [PCM-0216157] | -27 |  |
| Cc1ccc(Nc2c(F)cccc2Cl)c(CC(=O)O)c1 [PCM-0090280] | 6.9 |  |
| CCCCCCCCOc1ccccc1C(=O)Nc1ccc(C(=O)OCC[N+](C)(CC)CC)cc1 [PCM-0095536] | -64.6 |  |
| CO[C@]1(CC[C@@H](C)CO[C@@H]2O[C@H](CO)[C@@H](O)[C@H](O)[C@H]2O)O[C@H]2C[C@H]3[C@@H]4CC=C5C[C@@H](O[C@@H]6O[C@H](CO)[C@@H](O[C@@H]7O[C@@H](C)[C@H](O)[C@@H](O)[C@H]7O)[C@H](O)[C@H]6O[C@@H]6O[C@@H](C)[C@H](O)[C@@H](O)[C@H]6O)CC[C@]5(C)[C@H]4CC[C@]3(C)[C@H]2[C@@H]1C [PCM-0216533] | -6.2 |  |
| Cn1nnc(-c2ccc(-c3ccc(N4C[C@H](CO)OC4=O)cc3F)cn2)n1 [PCM-0216559] | -12.4 |  |
| CN(CC(=O)N(Cc1ccc(C2CCCCC2)cc1)c1ccc(C(=O)NO)cc1)S(=O)(=O)c1c(F)c(F)c(F)c(F)c1F [PCM-0215779] | 19.3 |  |
| C=C[C@@]12CN(C)[C@H]3C[C@]14C(=Nc1ccccc14)[C@@H]1C[C@@H]2[C@@H]3CO1 [PCM-0216515] |  | -16.2 |
| C/C=C(/C)C(=O)OC(C)(C)[C@@H]1Cc2c(ccc3ccc(=O)oc23)O1 [PCM-0216607] | -23.9 |  |
| COc1ccc(C2=N[C@@H](c3ccc(Cl)cc3)[C@@H](c3ccc(Cl)cc3)N2C(=O)N2CCNC(=O)C2)c(OC(C)C)c1 [PCM-0094990] | 14.5 |  |
| CCC(=O)O[C@H]1CC[C@H]2[C@@H]3CC[C@H]4CC(=O)[C@H](C)C[C@]4(C)[C@H]3CC[C@]12C [PCM-0215061] |  | -14 |
| CC1=C[C@H](O)CC(C)(C)[C@H]1/C=C/C(C)=C/C=C/C(C)=C/C=C/C=C(C)/C=C/C=C(C)/C=C/C1=C(C)C[C@@H](O)CC1(C)C [PCM-0215916] | 0.8 |  |
| CCCCCCNC(=O)Nc1ccc(S(=O)(=O)Nc2ccc(CCNC[C@H](O)COc3ccc(O)cc3)cc2)cc1 [PCM-0215659] | 5.4 |  |
| Oc1cc(O)c2c(c1)O[C@H](c1ccc(O)c(O)c1)[C@@H](O)C2 [PCM-0064631] | 37.4 |  |
| CNc1nc(Nc2cnn([C@H]3CCN(C4COC4)C[C@@H]3F)c2Cl)ncc1C(F)(F)F [PCM-0215360] | 0 |  |
| O=C(O)c1ccc(O)c(O)c1 [PCM-0215076] | 2.8 |  |
| NCCOCCOCCNC(=O)Cc1ccc(Nc2nc(NCc3ccc(F)cc3)nc(NCC3CCCCC3)n2)cc1 [PCM-0215568] | -36.3 |  |

| SMILES | inhibition at 10 µM [1] [%] | inhibition at 10 µM (read-out: BTK inhibition (%)) [%] |
| --- | --- | --- |
| Cc1cccc(C)c1NC1=NCCCS1 [PCM-0064906] |  | -21.8 |
| O=C(c1ccc(F)cc1)C1CCN(CCn2c(=O)[nH]c3ccccc3c2=O)CC1 [PCM-0065006] | 0 |  |
| COC(=O)c1cc(O)c(O)c(O)c1 [PCM-0215013] | 17.9 |  |
| CC(=O)O[C@]1(C(C)=O)CC[C@H]2[C@@H]3C=C(Cl)C4=CC(=O)[C@@H]5C[C@@H]5[C@]4(C)[C@H]3CC[C@@]21C [PCM-0214712] | 21 |  |
| O=C1C(c2[nH]c3ccc(S(=O)(=O)O)cc3c2O)=Nc2ccc(S(=O)(=O)O)cc21 [PCM-0216597] | 23.9 |  |
| COc1cc(OC)c(NC(=O)Nc2cc(C)on2)cc1Cl [PCM-0095491] | 10.9 |  |
| NCc1c[nH]c(=S)n1[C@H]1CCc2c(F)cc(F)cc2C1 [PCM-0214705] | -17.1 |  |
| O=C(/C=C/c1cccc(S(=O)(=O)Nc2ccccc2)c1)NO [PCM-0095051] | 9 |  |
| Cc1cc([C@@H](C)Nc2ccccc2C(=O)O)c2nc(N3CCOCC3)cc(=O)n2c1 [PCM-0214725] | -6.9 |  |
| Cc1ccc2c(c1)c1c(n2CCc2ccc(C)nc2)CCN(C)C1 [PCM-0095683] | 6.2 |  |
| C=C1C[C@@]23CC[C@H]4[C@@](C)(CCC[C@@]4(C)C(=O)O[C@@H]4O[C@H](CO)[C@@H](O)[C@H](O)[C@H]4O)[C@@H]2CC[C@]1(O[C@@H]1O[C@H](CO)[C@@H](O)[C@H](O)[C@H]1O[C@@H]1O[C@H](CO)[C@@H](O)[C@H](O)[C@H]1O)C3 [PCM-0216121] | -27.8 |  |
| Cc1cc(N2CCOCC2)ccc1Nc1nc(NC2CCCCC2)c2[nH]cnc2n1 [PCM-0215306] | 33.2 |  |
| CC[C@H]1[C@@H](O)[C@@H]2[C@H](CC[C@]3(C)[C@@H]([C@H](C)CCC(=O)O)CC[C@@H]23)[C@@]2(C)CC[C@@H](O)C[C@@H]12 [PCM-0215390] | 2.3 |  |
| COc1cccc(CCc2ccccc2OCC(CN(C)C)OC(=O)CCC(=O)O)c1 (stereo not shown) [PCM-0214923] | -22.6 |  |
| COc1cc(OC)c(C(=O)CCCN2CCCC2)c(OC)c1 [PCM-0085999] | -12.5 |  |
| CN1CCC(=C2c3ccccc3CCc3cccnc32)CC1 [PCM-0090351] | -2.8 |  |
| O=C(Nc1cccc(Nc2ncc(Br)c(NCCc3cnc[nH]3)n2)c1)N1CCCC1 [PCM-0095062] | 85.5 |  |
| C[C@@H](N)C1CCC(C(=O)Nc2ccncc2)CC1 (stereo partly shown) [PCM-0094977] | -2.1 |  |
| CCOC(=O)c1cc(O)c(O)c(O)c1 [PCM-0216263] | 9.3 |  |
| C[C@H]1[C@H](C)CC[C@]2(C(=O)O[C@@H]3O[C@H](CO[C@@H]4O[C@H](CO)[C@@H](O[C@@H]5O[C@@H](C)[C@H](O)[C@@H](O)[C@H]5O)[C@H](O)[C@H]4O)[C@@H](O)[C@H](O)[C@H]3O)CC[C@]3(C)C(=CC[C@@H]4[C@@]5(C)C[C@@H](O)[C@H](O)[C@@](C)(CO)[C@@H]5CC[C@]43C)[C@H]12 [PCM-0214874] | -15.9 |  |
| CC12CC3CC(C)(C1)CC(N)(C3)C2 [PCM-0064948] | 7.8 |  |
| O=C1C2CCN(CC2)C1(CO)CO [PCM-0215683] | 0.8 |  |
| CC(C)c1ccccc1Cc1cc(C(=O)Nc2ccc(S(=O)(=O)c3ccccc3C(C)(C)C)cc2)c(O)c(O)c1O [PCM-0094924] | 54.5 |  |

| SMILES | inhibition at 10 µM [1] [%] | inhibition at 10 µM (read-out: BTK inhibition (%)) [%] |
| --- | --- | --- |
| O=C(/C=C/c1ccc(O[C@@H]2O[C@H](CO)[C@@H](O)[C@H](O)[C@H]2O)cc1)c1ccc(O)cc1O [PCM-0216527] | 19.3 |  |
| CC(C)=CCC[C@](C)(O[C@@H]1O[C@H](CO[C@@H]2O[C@@H](CO)[C@H](O)[C@H]2O)[C@@H](O)[C@H](O)[C@H]1O)[C@H]1CC[C@]2(C)[C@@H]1[C@H](O)C[C@@H]1[C@@]3(C)CC[C@H](O[C@@H]4O[C@H](CO)[C@@H](O)[C@H](O)[C@H]4O[C@@H]4O[C@H](CO)[C@@H](O)[C@H](O)[C@H]4O)C(C)(C)[C@@H]3CC[C@]12C [PCM-0216509] | -10 |  |
| CC(=O)OCC1=C(C(=O)O)N2C(=O)[C@@H](NC(=O)Cc3cccs3)[C@H]2SC1 [PCM-0214820] | -12.5 |  |
| CCn1cc(C(=O)O)c(=O)c2cc(F)c(N3CCNCC3)nc21 [PCM-0086249] | 4.7 |  |
| O=c1[nH]c(=O)c2[nH]cnc2[nH]1 [PCM-0214891] | -10.9 |  |
| CC(=O)[C@H]1CC[C@H]2[C@@H]3CC=C4C[C@@H](O)CC[C@]4(C)[C@H]3CC[C@]12C [PCM-0086127] | -22.6 |  |
| CC(C)C12CCC(C)(CC1)O2 [PCM-0216156] | 23.9 |  |
| NC(N)=Nc1nc(CSCC/C(N)=N/S(N)(=O)=O)cs1 [PCM-0214735] | -26.2 |  |
| CCOC(=O)/C=C/c1ccc(O)c(OC)c1 [PCM-0215040] | -8.3 |  |
| Cc1nc(NC(=O)N2CCC[C@H]2C(N)=O)sc1-c1ccnc(C(C)(C)C(F)(F)F)c1 [PCM-0095427] | -7.6 |  |
| CC(=O)OC/C=C/c1ccccc1 [PCM-0216207] | -14.7 |  |
| Cc1cc(/C=C2/SC(=S)NC2=O)c(C)n1-c1cccnc1 [PCM-0215351] | 10.8 |  |
| NC(=O)c1ccc(-c2nc(-c3ccc4c(c3)OCO4)c(-c3ccccn3)[nH]2)cc1 [PCM-0095013] | 12.4 |  |
| CCS(=O)(=O)N1CCC(C(C)n2c(C)c(C(=O)NCc3c(OC)cc(C)[nH]c3=O)c3ccccc32)CC1 (stereo not shown) [PCM-0215486] | -3.1 |  |
| CNCCCC12CCC(c3ccccc31)c1ccccc12 [PCM-0064754] | 11.7 |  |
| CNC(=O)c1ccc(N2C(=S)N(c3ccc(C#N)c(C(F)(F)F)c3)C(=O)C2(C)C)cc1F [PCM-0095003] | -10.3 |  |
| C[C@]12CC[C@H](O)CC1=CC[C@@H]1[C@@H]2CC[C@]2(C)C(=O)CC[C@@H]12 [PCM-0214686] | -24.9 |  |
| CC(C)(C)c1cc(NC(=O)Nc2ccc(-c3cn4c(n3)sc3cc(OCCN5CCOCC5)ccc34)cc2)no1 [PCM-0095196] | 1.4 |  |
| CC[C@H](C)[C@H](N)C(=O)N[C@H]1CSSC[C@@H](C(=O)N[C@H](C(N)=O)[C@@H](C)O)NC(=O)[C@H](CCCN=C(N)N)NC(=O)[C@H](Cc2cnc[nH]2)NC(=O)[C@H](Cc2cnc[nH]2)NC(=O)CNC(=O)[C@H](Cc2c[nH]c3ccccc23)NC(=O)[C@H](CC(=O)O)NC(=O)[C@H](CCC(N)=O)NC(=O)[C@H](C(C)C)NC(=O)[C@H](C(C)C)NC1=O [PCM-0215822] | -3.4 |  |
| Cc1cc(N2CCCCC2)nc2ccccc12 [PCM-0215982] | 10 |  |
| NCCC(O)(P(=O)(O)O)P(=O)(O)O [PCM-0094901] | -6.8 |  |

Reference: PMC8041284, “Tunable Methacrylamides for Covalent Ligand Directed Release Chemistry” (Journal of the American Chemical Society, 2021)
